The target in assay [1] is T1, NLRP3 (Homo sapiens, UniProt Q96P20). In words: THP-1 cells pyroptosis assay (LPS priming, nigericin, resazurin read-out). Format: cell-based. On the set-up: Seed THP-1 cells (25,000 cells/well) containing 1.0 μg/ml LPS; host or cells: THP-1 cells, LPS-primed, nigericin-stimulated. The following applies: 1 μg/ml LPS, 3 hours compound, 5 μM nigericin 1 hr. The method, then: THP-1 cells (ATCC #TIB-202) were grown in RPMI containing L-glutamine (Gibco #11835) supplemented with 1 mM sodium pyruvate (Sigma #S8636) and penicillin (100 units/ml)/streptomycin (0.1 mg/ml) (Sigma #P4333) in 10% Fetal Bovine Serum (FBS) (Sigma #F0804). The cells were routinely passaged and grown to confluency (˜10^6 cells/ml). On the day of the experiment, THP-1 cells were harvested and resuspended into RPMI medium (without FBS). The cells were then counted and viability (>90%) checked by Trypan blue (Sigma #T8154). Appropriate dilutions were made to give a concentration of 625,000 cells/ml. To this diluted cell solution was added LPS (Sigma #L4524) to give a 1 μg/ml Final Assay Concentration (FAC). 40 μl of the final preparation was aliquoted into each well of a 96-well plate. The plate thus prepared was used for compound screening.
The following method step-by-step assay was followed for compound screening. • 1. Seed THP-1 cells (25,000 cells/well) containing 1.0 μg/ml LPS in 40 μl of RPMI medium (without FBS) in 96-well, black walled, clear bottom cell culture plates coated with poly-D-lysine (VWR #734-0317) • 2. Add 5 μl compound (8 points half-log dilution, with 10 μM top dose) or vehicle (DMSO 0.1% FAC) to the appropriate wells • 3. Incubate for 3 hours at 37° C., 5% CO2 • 4. Add 5 μl nigericin (Sigma #N7143) (FAC 5 μM) to all wells • 5. Incubate for 1 hr at 37° C., 5% CO2 • 6. At the end of the incubation period, spin plates at 300×g for 3 mins and remove supernatant • 7. Then add […] of resazurin (Sigma #R7017) (FAC 100 μM resazurin in RPMI medium without FBS) and incubate plates for a further 1-2 hours at 37° C. and 5% CO2 • 8. Plates were read in an Envision reader at Ex 560 nm and Em 590 nm • 9. IC50 data is fitted to a non-linear regression equation (log inhibitor vs response-variable slope 4-parameters)
(In general: Resazurin is reduced to fluorescent resorufin, in cell work by metabolically active cells.)

Assay [2] has as its target T1, NLRP3. In words: Human whole blood IL-1β release assay (LPS, nigericin, AlphaLisa). Format: cell-based. On the set-up: Plate out 80 μl of whole blood containing 1 μg/ml of LPS; from tissue; host or cells: human whole blood from healthy donors, LPS-primed, nigericin-stimulated. Conditions: 1 μg/ml LPS, 3 hours compound, 10 μM nigericin 1 hr, IL-1β in supernatant. As for the experimental part:
For systemic delivery, the ability to inhibit NLRP3 when the compounds are present within the bloodstream is of great importance. For this reason, the NLRP3 inhibitory activity of a number of compounds in human whole blood was investigated in accordance with the following protocol.
Human whole blood in Li-heparin tubes was obtained from healthy donors from a volunteer donor panel. • 1. Plate out 80 μl of whole blood containing 1 μg/ml of LPS in 96-well, clear bottom cell culture plate (Corning #3585) • 2. Add 10 μl compound (8 points half-log dilution with 10 μM top dose) or vehicle (DMSO 0.1% FAC) to the appropriate wells • 3. Incubate for 3 hours at 37° C., 5% CO2 • 4. Add 10 μl nigericin (Sigma #N7143) (10 μM FAC) to all wells • 5. Incubate for 1 hr at 37° C., 5% CO2 • 6. At the end of the incubation period, spin plates at 300×g for 5 mins to pellet cells and remove 20 μl of supernatant and add to 96-well v-bottom plates for IL-1β analysis (note: these plates containing the supernatants can be stored at −80° C. to be analysed at a later date) • 7. IL-1β was measured according to the manufacturer protocol (Perkin Elmer-AlphaLisa IL-1 Kit AL220F-5000) • 8. IC50 data is fitted to a non-linear regression equation (log inhibitor vs response-variable slope 4-parameters)

This passage reports IC50 results from US20250353830A1, “NOVEL COMPOUNDS” (Hoffmann-La Roche Inc., priority 2022, published 2025).

Usually IC50 stands for the point on the concentration scale where inhibition reaches its midpoint.

T1 sequence (Q96P20 whole entry): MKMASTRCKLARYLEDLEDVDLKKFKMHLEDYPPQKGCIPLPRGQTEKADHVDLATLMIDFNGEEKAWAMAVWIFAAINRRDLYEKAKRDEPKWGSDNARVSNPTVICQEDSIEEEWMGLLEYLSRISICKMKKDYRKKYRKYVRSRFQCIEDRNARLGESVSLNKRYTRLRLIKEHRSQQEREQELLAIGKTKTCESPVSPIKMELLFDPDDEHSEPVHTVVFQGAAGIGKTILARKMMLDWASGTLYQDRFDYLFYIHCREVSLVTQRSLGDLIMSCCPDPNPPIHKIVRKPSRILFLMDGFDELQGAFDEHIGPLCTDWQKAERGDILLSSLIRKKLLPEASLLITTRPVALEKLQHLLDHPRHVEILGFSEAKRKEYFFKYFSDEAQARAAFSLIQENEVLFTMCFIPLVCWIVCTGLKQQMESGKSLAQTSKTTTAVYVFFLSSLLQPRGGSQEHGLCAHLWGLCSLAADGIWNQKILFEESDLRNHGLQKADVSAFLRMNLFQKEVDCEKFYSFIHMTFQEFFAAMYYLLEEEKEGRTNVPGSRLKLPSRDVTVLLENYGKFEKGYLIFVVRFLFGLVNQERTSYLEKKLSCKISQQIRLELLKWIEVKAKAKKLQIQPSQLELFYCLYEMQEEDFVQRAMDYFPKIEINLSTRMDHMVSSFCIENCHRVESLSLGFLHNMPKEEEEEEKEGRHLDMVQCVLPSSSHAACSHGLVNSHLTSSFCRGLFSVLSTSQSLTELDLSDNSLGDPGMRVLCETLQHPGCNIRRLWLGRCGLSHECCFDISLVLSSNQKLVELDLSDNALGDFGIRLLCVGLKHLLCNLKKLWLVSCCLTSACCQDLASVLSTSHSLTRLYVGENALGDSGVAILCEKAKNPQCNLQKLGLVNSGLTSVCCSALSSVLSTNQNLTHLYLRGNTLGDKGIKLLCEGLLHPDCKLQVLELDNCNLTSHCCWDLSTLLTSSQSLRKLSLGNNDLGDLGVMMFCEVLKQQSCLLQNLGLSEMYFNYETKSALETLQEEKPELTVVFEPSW

Take `Cc1cc(N2CC[C@@H]3CCN(C)C[C@@H]32)nnc1-c1ccc2c(F)c[nH]c2c1` (single isomer, unassigned) [Example 18A]: the 50% inhibitory concentration (IC50) was determined as 2 nM on NLRP3 [1] and 31 nM against NLRP3 [2].

Turning to `CCN1CCC[C@@H](Nc2cc(C)c(-c3ccc4cc[nH]c4c3)nn2)C1` [Example 1, N-[(3R)-1-Ethyl-3-piperidyl]-6-(1H-indol-6-yl)-5-methyl-pyridazin-3-amine], the IC50 was 5.1 nM on NLRP3 [1] and 17.1 nM against NLRP3 [2].

Turning to `CCN1CCC[C@@H](Nc2cc(C)c(-c3ccc4c(F)c[nH]c4c3)nn2)C1` [Example 2, N-[(3R)-1-Ethyl-3-piperidyl]-6-(3-fluoro-1H-indol-6-yl)-5-methyl-pyridazin-3-amine], the concentration for half-maximal inhibition (IC50) at NLRP3 [1] stood at 2.7 nM; against NLRP3 [2] it was 9.5 nM.

Take `CCN1CCC[C@@H](Nc2cc(C)c(-c3cc4[nH]ccc4cc3F)nn2)C1` [Example 3, N-[(3R)-1-ethyl-3-piperidyl]-6-(5-fluoro-1H-indol-6-yl)-5-methyl-pyridazin-3-amine]: the IC50 on NLRP3 [1] is 9.2 nM; at NLRP3 [2] it was 48.6 nM.

In the case of `CCN1CCC[C@@H](Nc2cc(C)c(-c3ccc4c(C)c[nH]c4c3)nn2)C1` [Example 4, N-[(3R)-1-Ethyl-3-piperidyl]-5-methyl-6-(3-methyl-1H-indol-6-yl)pyridazin-3-amine], the IC50 on NLRP3 [1] is 43.7 nM; against NLRP3 [2], 234 nM.

Regarding `CCN1CCC[C@@H](Nc2cc(C)c(-c3ccc4cc(C)[nH]c4c3)nn2)C1` [Example 6, N-[(3R)-1-Ethyl-3-piperidyl]-5-methyl-6-(2-methyl-1H-indol-6-yl)pyridazin-3-amine], the figures for the half-inhibitory concentration (IC50) on NLRP3 [1] and against NLRP3 [2] were 12.3 nM and 56.2 nM, respectively.

As to `CCN1CCC[C@@H](Nc2cc(C)c(-c3ccc4c(C#N)c[nH]c4c3)nn2)C1` [Example 7, 6-[6-[[(3R)-1-Ethyl-3-piperidyl]amino]-4-methyl-pyridazin-3-yl]-1H-indole-3-carbonitrile], at NLRP3 [1], the IC50 is 133 nM.

With `CCN1CCC[C@@H](Nc2cc(C)c(-c3ccc4cc(C#N)[nH]c4c3)nn2)C1` [Example 8, 6-[6-[[(3R)-1-Ethyl-3-piperidyl]amino]-4-methyl-pyridazin-3-yl]-1H-indole-2-carbonitrile], the IC50 at NLRP3 [1] turned out to be 123 nM.

Take `Cc1cc(N[C@@H]2CCCN(C)C2)nnc1-c1ccc2c(F)c[nH]c2c1` [Example 9, 6-(3-Fluoro-1H-indol-6-yl)-5-methyl-N-[(3R)-1-methyl-3-piperidyl]pyridazin-3-amine]: the IC50 amounted to 4.9 nM on NLRP3 [1] and 26.5 nM on NLRP3 [2].

On to `CCN1CCC[C@@H](Nc2cc(C)c(-c3ccc4cc[nH]c4c3F)nn2)C1` [Example 10, N-[(3R)-1-ethyl-3-piperidyl]-6-(7-fluoro-1H-indol-6-yl)-5-methyl-pyridazin-3-amine], for which the half-maximal inhibitory concentration (IC50) at NLRP3 [1] turned out to be 22.6 nM; against NLRP3 [2], 45.1 nM.

In the case of `CCN1CCC[C@@H](Nc2cc(C(F)(F)F)c(-c3ccc4c(F)c[nH]c4c3)nn2)C1` [Example 11, N-[(3R)-1-Ethyl-3-piperidyl]-6-(3-fluoro-1H-indol-6-yl)-5-(trifluoromethyl)pyridazin-3-amine], the values for the concentration for half-maximal inhibition (IC50) at NLRP3 [1] and at NLRP3 [2] were 5.1 nM and 44.1 nM, respectively.

Take `CCc1cc(N[C@@H]2CCCN(CC)C2)nnc1-c1ccc2c(F)c[nH]c2c1` [Example 12, 5-Ethyl-N-[(3R)-1-ethyl-3-piperidyl]-6-(3-fluoro-1H-indol-6-yl)pyridazin-3-amine]: the IC50 was determined as 18.3 nM on NLRP3 [1] and 25.4 nM at NLRP3 [2].

`CCN1CCC[C@@H](Nc2nnc(-c3ccc4cc[nH]c4c3)c(C)n2)C1` [Example 13, N-[(3R)-1-Ethyl-3-piperidyl]-6-(1H-indol-6-yl)-5-methyl-1,2,4-triazin-3-amine]: the results for the half-inhibitory concentration (IC50) on NLRP3 [1] and at NLRP3 [2] were 47.3 nM and 28.6 nM, respectively.

On to `CCN1CCC[C@@H](Nc2nnc(-c3ccc4c(F)c[nH]c4c3)c(C)n2)C1` [Example 14, N-[(3R)-1-Ethyl-3-piperidyl]-6-(3-fluoro-1H-indol-6-yl)-5-methyl-1,2,4-triazin-3-amine], for which the half-inhibitory concentration (IC50) stood at 55.9 nM at NLRP3 [1] and 43.2 nM against NLRP3 [2].

Regarding `CCN1CCC[C@@H](Nc2nnc(-c3ccc4cc[nH]c4c3)c3c2cnn3C)C1` [Example 15, N-[(3R)-1-Ethyl-3-piperidyl]-7-(1H-indol-6-yl)-1-methyl-pyrazolo[3,4-d]pyridazin-4-amine], the IC50 is 27 nM on NLRP3 [1] and 52 nM against NLRP3 [2].

With `CCN1CCC[C@@H](Nc2ccc(-c3cc4[nH]ccc4cc3C)nn2)C1` [Example 16, N-[(3R)-1-Ethyl-3-piperidyl]-6-(5-methyl-1H-indol-6-yl)pyridazin-3-amine], the values for the half-inhibitory concentration (IC50) on NLRP3 [1] and against NLRP3 [2] were 21 nM and 113 nM, respectively.

Turning to `Cc1cc(N[C@H]2C[C@@](C)(O)C2)nnc1-c1ccc2c(F)c[nH]c2c1` [Example 17, 3-[[6-(3-Fluoro-1H-indol-6-yl)-5-methyl-pyridazin-3-yl]amino]-1-methyl-cyclobutanol], the IC50 on NLRP3 [1] was determined as 493 nM.

Consider `Cc1cc(N2CC[C@H]3CCN(C)C[C@H]32)nnc1-c1ccc2c(F)c[nH]c2c1` [Example 18B, (3aR,7aS)-1-[6-(3-fluoro-1H-indol-6-yl)-5-methyl-pyridazin-3-yl]-6-methyl-3,3a,4,5,7,7a-hexahydro-2H-pyrrolo[2,3-c]pyridine], for which the values for the IC50 at NLRP3 [1] and against NLRP3 [2] were 37 nM and 179 nM, respectively.
